In PubChem BioAssay AID2060621 (Molecular Pharmacology Branch, DTP, NCI, 2025):

Test system: 324938-238-R-J1-PDC complex spheroids viability
Test: Anticancer human tumor 324938-238-R-J1-PDC patient-derived bladder carcinoma cell line growth inhibition [CLK]
Conditions: for IC50: curve of first compound; for viability, T/C: stronger effect = lower value
Excerpt: A high-throughput screen of multi-cell type tumor spheroids was designed to identify active combinations of […] and targeted small molecules. Complex spheroids include a stromal component modeled by human endothelial cells (HUVEC) and fibroblasts modeled by human mesenchymal stem cells (MSCs). The concentration ranges selected for each drug and investigational agent were based upon clinically achievable concentrations if the clinical Cmax of the agent was known.
Compounds. The drugs and investigational agents: cirtuvivint (SM08502; NSC835563), CC-671 (NSC850746), vemurafenib (NSC761431), tapotoclax (NSC804041), sotorasib (NSC818433), adagrasib (NSC831453), MRTX-1133 (NSC836407), BAY2416964 (NSC825713), copanlisib (NSC816437), inavolisib (NSC800729), abemaciclib (NSC768073), osimertinib (NSC779217), entinostat (NSC756642), eltanexor (KPT-8602, NSC794443), venetoclax (NSC766270), ceralasertib (NSC777638), bortezomib (NSC756655), olaparib (NSC753686), talazoparib (NSC767125), alisertib (NSC759677), peposertib (NSC802822), gemcitabine (NSC613327), 5-fluorouracil (NSC19893), SN-38 (NSC673596), oxaliplatin (NSC266046), paclitaxel (NSC125973), and doxorubicin (NSC123127), were obtained from the National Cancer Institute (NCI) Developmental Therapeutics Program Chemical Repository. The FDA-approved anticancer drug set is available from the Developmental Therapeutics Program at https://dtp.cancer.gov/organization/dscb/obtaining/available plates.htm. […] The stock solutions were prepared in dimethyl sulfoxide (DMSO, Sigma-Aldrich, St. Louis, MO, cat. D2650), except for the platinum complexes which were prepared in saline (Quality Biological, Gaithersburg, MD, cat. 114-055-101), at 800-fold the tested concentration and stored at -70 degrees C prior to their use. All drugs and investigational agents were tested over a range starting from a high concentration at or near the clinical Cmax and decreasing in half-log increments. If the clinical Cmax for an agent had not been determined, the highest concentration tested was 10 microM.
Cell Culture. All cells were maintained in an incubator at 37 degrees C and 5% CO2 with 95% humidity. The PDC lines were cultured according to standard operating procedures established by the NCI PDMR. Briefly, all PDCs were thawed and cultured in Matrigel-coated flasks prepared with a working solution of 1X Ham's F-12 nutrient mix, without supplementation (Invitrogen, Waltham, MA, cat. 11765054), 100 U/mL penicillin-streptomycin (Invitrogen, cat. 15140122), and 2.5% Matrigel (Corning Inc., Corning, NY, cat. 354248) for the first three passages. The 947758-054-R-J2-PDC line was cultured in 6B/Colon 1A media, which includes advanced DMEM/F-12 (Thermo Fisher Scientific, cat. 12634028), 10 mM HEPES (Thermo Fisher Scientific, cat. 15630080), 1X GlutaMAX supplement (Thermo Fisher Scientific, cat. 35050061), 0.1 mg/mL primocin (InvivoGen, cat. ant-pm-2), 10% defined fetal bovine serum, heat inactivated (HyClone Laboratories Inc., cat. SH30070.03HI), 1.25 mM N-Acetyl-L-cysteine (Sigma-Aldrich, cat. A9165), 10 mM nicotinamide (Sigma-Aldrich, cat. N0636), 1X B-27 supplement (Thermo Fisher Scientific, cat. 17504044), 1X N-2 supplement (Thermo Fisher Scientific, cat. 17502048), and 10 microM Y-27632 dihydrochloride (Tocris Bioscience, cat. 1254). The 876862-298-R-J1-PDC was cultured in 6E media, which includes all 6B/Colon 1A media components plus 50% L-WRN conditioned media (ATCC, cat. CRL-3276), 50 ng/mL recombinant human EGF recombinant protein (hEGF; Thermo Fisher Scientific, cat. PHG0311), 10 ng/mL recombinant human fibroblast growth factor 10 (hGFG-10; PeproTech, cat. 100-26), 1 ng/mL recombinant human fibroblast growth factor 2 (hFGF-2; PeproTech, cat. 100-18B), and 1 µM prostaglandin E2 (PGE2; Tocris, cat. 2296). The 227483-062-R1-J1-PDC line was cultured in Panc media, containing all 6E components except hFGF-2, with the addition of 500 nM SB-431542 (Selleckchem, cat. S1067) and 10 nM gastrin (Tocris, cat. 3006). […]

[1] = second compound 0.0316 µM, first compound 0.0316 µM
[2] = second compound 0.0316 µM, first compound 0.1 µM
[3] = second compound 0.0316 µM, first compound 0.316 µM
[4] = second compound 0.0316 µM, first compound 1 µM
[5] = second compound 0.0316 µM, first compound 3.16 µM
[6] = second compound 0.0316 µM, first compound 10 µM
[7] = second compound 0.1 µM, first compound 0.0316 µM
[8] = second compound 0.1 µM, first compound 0.1 µM
[9] = second compound 0.1 µM, first compound 0.316 µM
[10] = second compound 0.1 µM, first compound 1 µM
[11] = second compound 0.1 µM, first compound 3.16 µM
[12] = second compound 0.1 µM, first compound 10 µM
[13] = second compound 0.316 µM, first compound 0.0316 µM
[14] = second compound 0.316 µM, first compound 0.1 µM
[15] = second compound 0.316 µM, first compound 0.316 µM
[16] = second compound 0.316 µM, first compound 1 µM
[17] = second compound 0.316 µM, first compound 3.16 µM
[18] = second compound 0.316 µM, first compound 10 µM
[19] = second compound 1 µM, first compound 0.0316 µM
[20] = second compound 1 µM, first compound 0.1 µM
[21] = second compound 1 µM, first compound 0.316 µM
[22] = second compound 1 µM, first compound 1 µM
[23] = second compound 1 µM, first compound 3.16 µM
[24] = second compound 1 µM, first compound 10 µM
[25] = second compound 3.16 µM, first compound 0.0316 µM
[26] = second compound 3.16 µM, first compound 0.1 µM
[27] = second compound 3.16 µM, first compound 0.316 µM
[28] = second compound 3.16 µM, first compound 1 µM
[29] = second compound 3.16 µM, first compound 3.16 µM
[30] = second compound 3.16 µM, first compound 10 µM
[31] = second compound 10 µM, first compound 0.0316 µM
[32] = second compound 10 µM, first compound 0.1 µM
[33] = second compound 10 µM, first compound 0.316 µM
[34] = second compound 10 µM, first compound 1 µM
[35] = second compound 10 µM, first compound 3.16 µM
[36] = second compound 10 µM, first compound 10 µM
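Also: viability read after seven days of drug exposure.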
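For viability, T/C in this document: 100% = DMSO vehicle control wells.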

CCCS(=O)(=O)Nc1ccc(F)c(C(=O)c2c[nH]c3ncc(-c4ccc(Cl)cc4)cc23)c1F + CN1CCN(c2cc(C(=O)Nc3cc4cc(-c5cnn(C)c5)ccc4cn3)ccn2)CC1
IC50 (second compound 0.0316 µM): > 10000 nM | IC50 (second compound 0.1 µM): 8330 nM | IC50 (second compound 0.316 µM): < 31.6 nM | IC50 (second compound 1 µM): < 31.6 nM | IC50 (second compound 3.16 µM): < 31.6 nM | IC50 (second compound 10 µM): < 31.6 nM | viability, T/C [1]: 76.9% | viability, T/C [2]: 96% | viability, T/C [3]: 92.7% | viability, T/C [4]: 114% | viability, T/C [5]: 102% | viability, T/C [6]: 58.3% | viability, T/C [7]: 61.2% | viability, T/C [8]: 61.3% | viability, T/C [9]: 52% | viability, T/C [10]: 65.7% | viability, T/C [11]: 60.1% | viability, T/C [12]: 39.1% | viability, T/C [13]: 24.1% | viability, T/C [14]: 27.6% | viability, T/C [15]: 24.5% | viability, T/C [16]: 27.2% | viability, T/C [17]: 26% | viability, T/C [18]: 24.8% | viability, T/C [19]: 1.58% | viability, T/C [20]: 1.65% | viability, T/C [21]: 1.22% | viability, T/C [22]: 0.96% | viability, T/C [23]: 1.9% | viability, T/C [24]: 0.6% | viability, T/C [25]: 0.52% | viability, T/C [26]: 0.23% | viability, T/C [27]: 0.3% | viability, T/C [28]: 0.13% | viability, T/C [29]: 0.14% | viability, T/C [30]: 0.21% | viability, T/C [31]: 0.56% | viability, T/C [32]: 0.19% | viability, T/C [33]: 0.19% | viability, T/C [34]: 0.31% | viability, T/C [35]: 0.18% | viability, T/C [36]: 0.62%

COC1C=CCC(C)C(C)S(=O)(=O)NC(=O)c2ccc3c(c2)N(CC2CCC21)CC1(CCCc2cc(Cl)ccc21)CO3 (centres undefined) + CN1CCN(c2cc(C(=O)Nc3cc4cc(-c5cnn(C)c5)ccc4cn3)ccn2)CC1
IC50 (second compound 0.0316 µM): 440 nM | IC50 (second compound 0.1 µM): 292 nM | IC50 (second compound 0.316 µM): < 31.6 nM | IC50 (second compound 1 µM): < 31.6 nM | IC50 (second compound 3.16 µM): < 31.6 nM | IC50 (second compound 10 µM): < 31.6 nM | viability, T/C [1]: 86.6% | viability, T/C [2]: 87.2% | viability, T/C [3]: 57.6% | viability, T/C [4]: 27.6% | viability, T/C [5]: 17.9% | viability, T/C [6]: 11.9% | viability, T/C [7]: 57.9% | viability, T/C [8]: 52.9% | viability, T/C [9]: 50.4% | viability, T/C [10]: 25.9% | viability, T/C [11]: 18.4% | viability, T/C [12]: 13.9% | viability, T/C [13]: 26.2% | viability, T/C [14]: 26% | viability, T/C [15]: 23.1% | viability, T/C [16]: 13.1% | viability, T/C [17]: 10.5% | viability, T/C [18]: 8.58% | viability, T/C [19]: 1.66% | viability, T/C [20]: 1.72% | viability, T/C [21]: 1.35% | viability, T/C [22]: 0.96% | viability, T/C [23]: 0.86% | viability, T/C [24]: 0.63% | viability, T/C [25]: 0.44% | viability, T/C [26]: 0.47% | viability, T/C [27]: 0.28% | viability, T/C [28]: 0.21% | viability, T/C [29]: 0.22% | viability, T/C [30]: 0.36% | viability, T/C [31]: 0.19% | viability, T/C [32]: 0.17% | viability, T/C [33]: 0.21% | viability, T/C [34]: 0.19% | viability, T/C [35]: 0.25% | viability, T/C [36]: 0.25%
